Assay results from paper PMC6271239, “Synthesis and in Vitro Evaluation of New Nitro-Substituted Thiazolyl Hydrazone Derivatives as Anticandidal and Anticancer Agents” (Molecules, 2014).
Converted amounts (≈) assume the structure as drawn.

Assays:
[1] = tested on: MCF-7 human breast adenocarcinoma cell line; assay: MTT cytotoxicity assay; type: cell-based; settings: 3.9–500 µg/mL; for IC50: Homo sapiens, MCF7, 24 h incubation
Experimental: (§1) The tetrazolium salt, MTT (3-(4,5-dimethylthiazol-2-yl)-2,5-diphenyltetrazolium bromide), is used to measure the metabolic activity of viable cells. Tetrazolium salts are reduced to formazan by mitochondrial succinate dehydrogenase, an enzyme which is only active in cells with an intact metabolism. The formazan can be quantified photometrically and it is in correlation with the number of viable cells. Cytotoxicity was tested using the MCF-7 human breast adenocarcinoma cell line and NIH/3T3 mouse embryonic fibroblast cell line. NIH/3T3 and MCF-7 cells were incubated in RPMI medium (Hyclone, Thermo Scientific, Logan, UT, USA) supplemented with fetal calf serum (Hyclone), 100 IU/mL penicillin and […] (Hyclone) at 37 °C in a humidified atmosphere of 95% air and 5% CO2. MCF-7 and NIH/3T3 cells were seeded at 10,000 cells into each well of 96-well plates. After 24 h of incubating period, the culture mediums were removed and compounds were added to culture medium at 3.9–500 µg/mL concentrations. After 24 h of incubation, cytotoxicity tests were performed using the MTT assay, which measures mitochondrial activity, in MCF-7 and NIH/3T3 cells. Firstly, 20 µL MTT solution (5 mg/mL MTT powder in PBS) was added to each well. After 3 h incubation period at 37 °C, 5% CO2, the contents of the wells were removed and 100 µL DMSO was added to each well. Then, OD of the plate was read at 570 nm. Inhibition% was calculated for each concentration of the compounds. IC50 values were estimated by non-linear regression analysis. Cisplatin was used as a positive control. Stock solutions of compounds were prepared in DMSO and further dilutions were made with fresh culture medium. All experiments were performed in duplicate.

[2] = tested on: NIH/3T3 mouse embryonic fibroblast cell line; assay: MTT cytotoxicity assay; type: cell-based; settings: 3.9–500 µg/mL; for IC50: Mus musculus, NIH3T3, 24 h incubation
Experimental: as §1

[3] = tested on: Candida parapsilosis (NRRLY 12696); assay: Anticandidal broth microdilution assay; type: cell-based; settings: Lodderomyces parapsilosis, RPMI, 37 °C, 24 h
Experimental: (§2) Anticandidal activity assay was performed against Candida albicans (ATCC 10231), Candida utilis (NRRLY 900), Candida tropicalis (NRRLY 12968), Candida krusei (NRRLY 7179), Candida parapsilosis (NRRLY 12696) and Candida glabrata (ATCC 2001) standard strains according to the CSLI method.
(§3) The minimum inhibitory concentration (MIC, µg/mL) values against pathogenic Candida strains were determined by a broth microdilution method using a 96-well plate format. Compounds 1–14 and fluconazole as a standard control were first dissolved in dimethyl sulfoxide (DMSO) (25%) at an initial concentration of 2000 µg/mL.
(§4) All Candida strains were inoculated on Potato Dextrose Agar (PDA) prior the experiments at 37 °C. After the incubation, sufficiently grown microorganisms were inoculated in sterile saline (0.85%), and then standardized according to the turbidity to 5 × 10^3 CFU (McFarland No: 0.5) per well in RPMI medium under sterile conditions. Serial dilutions were prepared in 100 µL RPMI medium with an equal amount of the test samples, and 100 µL each microorganism suspension was pipetted into each well and incubated at 37 °C for 24 h. Positive growth controls (to assess the presence of turbidity) were performed in wells without the test samples, whereas the negative growth control (medium) was also evaluated. MIC was deﬁned as the lowest concentration without any visible growth of the yeast when compared with the growth in the control plate. All experiments were performed in duplicate.

[4] = tested on: Candida albicans (ATCC 10231); assay: Anticandidal broth microdilution assay; type: cell-based; settings: ATCC10231, RPMI, 37 °C, 24 h
Experimental: as §2, §3, §4

[5] = tested on: Candida tropicalis (NRRLY 12968); assay: Anticandidal broth microdilution assay; type: cell-based; settings: RPMI, 37 °C, 24 h
Experimental: as §2, §3, §4

[6] = tested on: Candida utilis (NRRLY 900); assay: Anticandidal broth microdilution assay; type: cell-based; settings: Williopsis jadinii, RPMI, 37 °C, 24 h
Experimental: as §2, §3, §4

[7] = tested on: Candida krusei (NRRLY 7179); assay: Anticandidal broth microdilution assay; type: cell-based; settings: Pichia kudriavzevii, RPMI, 37 °C, 24 h
Experimental: as §2, §3, §4

[8] = tested on: Candida glabrata (ATCC 2001); assay: Anticandidal broth microdilution assay; type: cell-based; settings: Nakaseomyces glabratus, ATCC2001, RPMI, 37 °C, 24 h
Experimental: as §2, §3, §4

Compound | IC50 MCF-7 Cell Line ([1]; 24 h incubation) | IC50 NIH/3T3 Cell Line ([2]; 24 h incubation) | melting point | MIC [3] | MIC [4] | MIC [5] | MIC [6] | MIC [7] | MIC [8] | IC50 [1] | IC50 [2]
N.N.[Cl][Pt][Cl] [Cisplatin, reference compound] | 31.2 µg/mL | 330.58 µg/mL | – | – | – | – | – | – | – | – | –
O=[N+]([O-])c1ccc(-c2ccc(C=NNc3nc(-c4ccccc4)cs3)o2)cc1 [Compound 1, 2-[2-((5-(4-Nitrophenyl)furan-2-yl)methylene)hydrazinyl]-4-phenylthiazole] | – | – | 213 to 214 °C | 500 µg/mL (≈ 1280 µM) | 500 µg/mL (≈ 1280 µM) | 1000 µg/mL (≈ 2560 µM) | 500 µg/mL (≈ 1280 µM) | 500 µg/mL (≈ 1280 µM) | 1000 µg/mL (≈ 2560 µM) | > 500 µg/mL | > 500 µg/mL
O=[N+]([O-])c1ccc(-c2csc(NN=Cc3ccc(-c4ccc([N+](=O)[O-])cc4)o3)n2)cc1 [Compound 2, 4-(4-Nitrophenyl)-2-[2-((5-(4-nitrophenyl)furan-2-yl)methylene)hydrazinyl]thiazole] | – | – | 252 to 254 °C | 500 µg/mL (≈ 1150 µM) | 500 µg/mL (≈ 1150 µM) | 500 µg/mL (≈ 1150 µM) | 500 µg/mL (≈ 1150 µM) | 500 µg/mL (≈ 1150 µM) | 1000 µg/mL (≈ 2300 µM) | > 500 µg/mL | > 500 µg/mL
O=[N+]([O-])c1ccc(-c2ccc(C=NNc3nc(-c4ccc(F)cc4)cs3)o2)cc1 [Compound 3, 4-(4-Fluorophenyl)-2-[2-((5-(4-nitrophenyl)furan-2-yl)methylene)hydrazinyl]thiazole] | – | – | 241 to 242 °C | 500 µg/mL (≈ 1220 µM) | 500 µg/mL (≈ 1220 µM) | 500 µg/mL (≈ 1220 µM) | 500 µg/mL (≈ 1220 µM) | 500 µg/mL (≈ 1220 µM) | 1000 µg/mL (≈ 2450 µM) | 500 µg/mL (≈ 1220 µM) | 250 µg/mL (≈ 612 µM)
O=[N+]([O-])c1ccc(-c2ccc(C=NNc3nc(-c4ccc(Cl)cc4)cs3)o2)cc1 [Compound 4, 4-(4-Chlorophenyl)-2-[2-((5-(4-nitrophenyl)furan-2-yl)methylene)hydrazinyl]thiazole] | – | – | 229 to 231 °C | 1000 µg/mL (≈ 2350 µM) | 500 µg/mL (≈ 1180 µM) | 500 µg/mL (≈ 1180 µM) | 500 µg/mL (≈ 1180 µM) | 500 µg/mL (≈ 1180 µM) | 500 µg/mL (≈ 1180 µM) | > 500 µg/mL | > 500 µg/mL
O=[N+]([O-])c1ccc(-c2ccc(C=NNc3nc(-c4ccc(Br)cc4)cs3)o2)cc1 [Compound 5, 4-(4-Bromophenyl)-2-[2-((5-(4-nitrophenyl)furan-2-yl)methylene)hydrazinyl]thiazole] | – | – | 243 to 244 °C | 500 µg/mL (≈ 1070 µM) | 500 µg/mL (≈ 1070 µM) | 500 µg/mL (≈ 1070 µM) | 500 µg/mL (≈ 1070 µM) | 1000 µg/mL (≈ 2130 µM) | 1000 µg/mL (≈ 2130 µM) | > 500 µg/mL | > 500 µg/mL
Cc1ccc(-c2csc(NN=Cc3ccc(-c4ccc([N+](=O)[O-])cc4)o3)n2)cc1 [Compound 6, 2-[2-((5-(4-Nitrophenyl)furan-2-yl)methylene)hydrazinyl]-4-(p-tolyl)thiazole] | – | – | 236 to 237 °C | 500 µg/mL (≈ 1240 µM) | 500 µg/mL (≈ 1240 µM) | 1000 µg/mL (≈ 2470 µM) | 500 µg/mL (≈ 1240 µM) | 1000 µg/mL (≈ 2470 µM) | 500 µg/mL (≈ 1240 µM) | > 500 µg/mL | > 500 µg/mL
COc1ccc(-c2csc(NN=Cc3ccc(-c4ccc([N+](=O)[O-])cc4)o3)n2)cc1 [Compound 7, 4-(4-Methoxyphenyl)-2-[2-((5-(4-nitrophenyl)furan-2-yl)methylene)hydrazinyl]thiazole] | – | – | 232 to 233 °C | 500 µg/mL (≈ 1190 µM) | 500 µg/mL (≈ 1190 µM) | 500 µg/mL (≈ 1190 µM) | 500 µg/mL (≈ 1190 µM) | 500 µg/mL (≈ 1190 µM) | 1000 µg/mL (≈ 2380 µM) | > 500 µg/mL | > 500 µg/mL
O=[N+]([O-])c1cc(Cl)ccc1-c1ccc(C=NNc2nc(-c3ccccc3)cs2)o1 [Compound 8, 2-[2-((5-(4-Chloro-2-nitrophenyl)furan-2-yl)methylene)hydrazinyl]-4-phenylthiazole] | – | – | 194 to 195 °C | 1000 µg/mL (≈ 2350 µM) | 500 µg/mL (≈ 1180 µM) | 500 µg/mL (≈ 1180 µM) | 500 µg/mL (≈ 1180 µM) | 500 µg/mL (≈ 1180 µM) | 1000 µg/mL (≈ 2350 µM) | > 500 µg/mL | > 500 µg/mL
O=[N+]([O-])c1ccc(-c2csc(NN=Cc3ccc(-c4ccc(Cl)cc4[N+](=O)[O-])o3)n2)cc1 [Compound 9, 2-[2-((5-(4-Chloro-2-nitrophenyl)furan-2-yl)methylene)hydrazinyl]-4-(4-nitrophenyl)thiazole] | – | – | 216 to 220 °C | 500 µg/mL (≈ 1060 µM) | 500 µg/mL (≈ 1060 µM) | 500 µg/mL (≈ 1060 µM) | 500 µg/mL (≈ 1060 µM) | 500 µg/mL (≈ 1060 µM) | 1000 µg/mL (≈ 2130 µM) | 103 µg/mL (≈ 218 µM) | 86.3 µg/mL (≈ 184 µM)
O=[N+]([O-])c1cc(Cl)ccc1-c1ccc(C=NNc2nc(-c3ccc(F)cc3)cs2)o1 [Compound 10, 2-[2-((5-(4-Chloro-2-nitrophenyl)furan-2-yl)methylene)hydrazinyl]-4-(4-fluorophenyl)thiazole] | – | – | 208 to 209 °C | 500 µg/mL (≈ 1130 µM) | 500 µg/mL (≈ 1130 µM) | 500 µg/mL (≈ 1130 µM) | 250 µg/mL (≈ 565 µM) | 1000 µg/mL (≈ 2260 µM) | 1000 µg/mL (≈ 2260 µM) | 122 µg/mL (≈ 275 µM) | 250 µg/mL (≈ 565 µM)
O=[N+]([O-])c1cc(Cl)ccc1-c1ccc(C=NNc2nc(-c3ccc(Cl)cc3)cs2)o1 [Compound 11, 2-[2-((5-(4-Chloro-2-nitrophenyl)furan-2-yl)methylene)hydrazinyl]-4-(4-chlorophenyl)thiazole] | – | – | 186 to 187 °C | 500 µg/mL (≈ 1090 µM) | 500 µg/mL (≈ 1090 µM) | 500 µg/mL (≈ 1090 µM) | 500 µg/mL (≈ 1090 µM) | 1000 µg/mL (≈ 2180 µM) | 1000 µg/mL (≈ 2180 µM) | 125 µg/mL (≈ 272 µM) | > 500 µg/mL
O=[N+]([O-])c1cc(Cl)ccc1-c1ccc(C=NNc2nc(-c3ccc(Br)cc3)cs2)o1 [Compound 12, 4-(4-Bromophenyl)-2-[2-((5-(4-chloro-2-nitrophenyl)furan-2-yl)methylene)hydrazinyl]thiazole] | – | – | 199 to 201 °C | 500 µg/mL (≈ 993 µM) | 500 µg/mL (≈ 993 µM) | 1000 µg/mL (≈ 1990 µM) | 1000 µg/mL (≈ 1990 µM) | 1000 µg/mL (≈ 1990 µM) | 500 µg/mL (≈ 993 µM) | 500 µg/mL (≈ 993 µM) | > 500 µg/mL
Cc1ccc(-c2csc(NN=Cc3ccc(-c4ccc(Cl)cc4[N+](=O)[O-])o3)n2)cc1 [Compound 13, 2-[2-((5-(4-Chloro-2-nitrophenyl)furan-2-yl)methylene)hydrazinyl]-4-(p-tolyl)thiazole] | – | – | 166 to 167 °C | 1000 µg/mL (≈ 2280 µM) | 250 µg/mL (≈ 570 µM) | 500 µg/mL (≈ 1140 µM) | 500 µg/mL (≈ 1140 µM) | 500 µg/mL (≈ 1140 µM) | 500 µg/mL (≈ 1140 µM) | 500 µg/mL (≈ 1140 µM) | > 500 µg/mL
COc1ccc(-c2csc(NN=Cc3ccc(-c4ccc(Cl)cc4[N+](=O)[O-])o3)n2)cc1 [Compound 14, 2-[2-((5-(4-Chloro-2-nitrophenyl)furan-2-yl)methylene)hydrazinyl]-4-(4-methoxyphenyl)thiazole] | – | – | 206 to 207 °C | 500 µg/mL (≈ 1100 µM) | 250 µg/mL (≈ 550 µM) | 250 µg/mL (≈ 550 µM) | 250 µg/mL (≈ 550 µM) | 500 µg/mL (≈ 1100 µM) | 500 µg/mL (≈ 1100 µM) | > 500 µg/mL | > 500 µg/mL
OC(Cn1cncn1)(Cn1cncn1)c1ccc(F)cc1F [Fluconazole, reference compound] | – | – | – | 2 µg/mL (≈ 6.53 µM) | 1 µg/mL (≈ 3.27 µM) | 1 µg/mL (≈ 3.27 µM) | 2 µg/mL (≈ 6.53 µM) | 2 µg/mL (≈ 6.53 µM) | 2 µg/mL (≈ 6.53 µM) | – | –
